Measurements taken from patent publication US9340521B2, “Method for dual inhibition of SGLT1 and SGLT2 using diphenylmethane derivatives” (GREEN CROSS CORPORATION, priority 2013, dated 2016).

Columns and labels:
Human SGLT2 (hSGLT2) = Human SGLT2 (hSGLT2) (Homo sapiens (Human), UniProt P31639); assay: Inhibitory effects on human SGLT2 activities (14C-AMG uptake, sodium-dependent glucose transport assay); type: cell-based; settings: hSGLT2-expressing CHO cells, 37° C. for 2 h, single determinations
Chain of Human SGLT2 (hSGLT2) (P31639 whole entry): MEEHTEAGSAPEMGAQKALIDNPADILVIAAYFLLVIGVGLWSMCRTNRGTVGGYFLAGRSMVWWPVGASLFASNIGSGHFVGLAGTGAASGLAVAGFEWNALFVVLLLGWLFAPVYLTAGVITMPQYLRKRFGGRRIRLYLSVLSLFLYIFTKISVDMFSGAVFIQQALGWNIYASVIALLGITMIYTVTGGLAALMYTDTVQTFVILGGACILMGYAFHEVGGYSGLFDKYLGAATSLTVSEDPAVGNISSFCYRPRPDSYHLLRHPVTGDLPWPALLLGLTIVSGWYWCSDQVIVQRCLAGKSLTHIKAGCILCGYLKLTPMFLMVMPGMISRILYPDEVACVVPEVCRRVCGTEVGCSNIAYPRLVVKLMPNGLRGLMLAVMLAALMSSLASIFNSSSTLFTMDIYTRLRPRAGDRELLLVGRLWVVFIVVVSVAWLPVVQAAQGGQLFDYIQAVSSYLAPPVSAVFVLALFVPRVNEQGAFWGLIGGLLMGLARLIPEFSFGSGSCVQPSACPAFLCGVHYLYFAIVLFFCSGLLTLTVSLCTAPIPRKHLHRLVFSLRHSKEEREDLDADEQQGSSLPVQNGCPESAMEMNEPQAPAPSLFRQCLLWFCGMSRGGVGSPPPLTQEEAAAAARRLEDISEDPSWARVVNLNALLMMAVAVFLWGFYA
From the text: Test 1: Cloning and Cell Line Construction for Human SGLT2
Human SGLT2 (hSGLT2) gene was amplified by PCR from cDNA-Human Adult Normal Tissue Kidney (Invitrogen). The hSGLT2 sequence was cloned into pcDNA3.1(+) for mammalian expression and stably transfected into chinese hamster ovary (CHO) cells. SGLT2-expressing clones were selected based on resistance to G418 antibiotic (Geneticin) and activity in the ^14C-α-methyl-D-glucopyranoside (^14C-AMG) uptake assay.
Test 2: Inhibitory Effects on Human SGLT2 Activities
(§1) For sodium-dependent glucose transport assay, cells expressing hSGLT2 were seeded into a 96-well culture plate at a density of 5×10^4 cells/well in RPMI medium 1640 containing 10% fetal bovine serum. The cells were used 1 day after plating. They were incubated in pretreatment buffer (10 mM HEPES, 5 mM Tris, 140 mM choline chloride, 2 mM KCl, 1 mM CaCl2, and 1 mM MgCl2, pH 7.4) at 37° C. for 10 min. They were then incubated in uptake buffer (10 mM HEPES, 5 mM Tris, 140 mM NaCl, 2 mM KCl, 1 mM CaCl2, 1 mM MgCl2, and 1 mM ^14C-nonlabeled AMG pH 7.4) containing ^14C-labeled AMG (8 μM) and the inventive compound or dimethyl sulfoxide (DMSO) vehicle at 37° C. for 2 h. Cells were washed twice with washing buffer (pretreatment buffer containing 10 mM AMG at room temperature) and then the radioactivity was measured using a liquid scintillation counter. IC50 was determined by nonlinear regression analysis using GraphPad PRISM [Katsuno, K. et al. J. Pharmacol. Exp. Ther. 2007, 320, 323-330; Han, S. et al. Diabetes, 2008, 57, 1723-1729].

Human SGLT1 (hSGLT1) = Human SGLT1 (hSGLT1) (Homo sapiens (Human), UniProt P13866); assay: Inhibitory effects on human SGLT1 activities (14C-AMG uptake, sodium-dependent glucose transport assay); type: cell-based; settings: 37° C. for 2 h, single determinations
Chain of Human SGLT1 (hSGLT1) (P13866 whole entry): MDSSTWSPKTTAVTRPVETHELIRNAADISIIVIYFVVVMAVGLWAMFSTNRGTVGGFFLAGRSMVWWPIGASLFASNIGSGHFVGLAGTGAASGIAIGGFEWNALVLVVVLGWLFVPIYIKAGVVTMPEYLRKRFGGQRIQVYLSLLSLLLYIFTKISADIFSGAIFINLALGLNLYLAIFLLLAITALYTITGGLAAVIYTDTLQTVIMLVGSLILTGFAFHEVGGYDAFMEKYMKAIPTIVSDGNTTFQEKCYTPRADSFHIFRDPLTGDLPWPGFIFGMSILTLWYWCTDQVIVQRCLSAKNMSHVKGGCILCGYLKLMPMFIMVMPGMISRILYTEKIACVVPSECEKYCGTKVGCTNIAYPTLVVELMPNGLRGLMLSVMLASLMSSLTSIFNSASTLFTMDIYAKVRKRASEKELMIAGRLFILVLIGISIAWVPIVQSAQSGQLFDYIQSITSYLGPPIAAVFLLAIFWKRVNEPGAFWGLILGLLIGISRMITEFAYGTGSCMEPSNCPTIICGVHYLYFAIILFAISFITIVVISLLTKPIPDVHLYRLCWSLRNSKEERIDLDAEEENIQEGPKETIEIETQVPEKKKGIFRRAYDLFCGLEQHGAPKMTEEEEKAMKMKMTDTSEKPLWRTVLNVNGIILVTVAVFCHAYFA
Experimental: Test 3: Inhibitory Effects on Human SGLT1 Activities
as §1, with “^14C-labeled” for “^14C-labeled AMG”, “inhibitor” for “the inventive compound”, “PRISM.” for “PRISM [Katsuno, K. et al. J. Pharmacol. Exp. Ther. 2007, 320, 323-330; Han, S. et al. Diabetes, 2008, 57, 1723-1729].”

IC50 (Human SGLT2 (hSGLT2)) [nM] | IC50 (Human SGLT1 (hSGLT1)) [nM] | Structure (SMILES)
2.1 | 78.1 | COc1ccc(Cc2cc([C@@H]3O[C@H](CO)[C@@H](O)[C@H](O)[C@H]3O)c3c(c2Cl)OCCC3)cc1 [Compound E023, (2S,3R,4R,5S,6R)-2-(8-Chloro-7-(4-methoxybenzyl)chroman-5-yl)-6-(hydroxymethyl)tetrahydro-2H-pyran-3,4,5-triol]
0.37 | 53 | OC[C@H]1O[C@@H](c2cc(Cc3ccc(C4CC4)cc3)c(Cl)c3c2OCO3)[C@H](O)[C@@H](O)[C@@H]1O [Compound E024, (2S,3R,4R,5S,6R)-2-(7-Chloro-6-(4-cyclopropylbenzyl)benzo[d][1,3]dioxol-4-yl)-6-(hydroxymethyl)tetrahydro-2H-pyran-3,4,5-triol]
1.2 | 89.4 | COc1ccc(Cc2cc([C@@H]3O[C@H](CO)[C@@H](O)[C@H](O)[C@H]3O)c3c(c2Cl)OCO3)cc1 [Compound E025, (2S,3R,4R,5S,6R)-2-(7-Chloro-6-(4-methoxybenzyl)benzo[d][1,3]dioxol-4-yl)-6-(hydroxymethyl)tetrahydro-2H-pyran-3,4,5-triol]
0.4 | 86.9 | CCc1ccc(Cc2cc([C@@H]3O[C@H](CO)[C@@H](O)[C@H](O)[C@H]3O)c3c(c2Cl)OCO3)cc1 [Compound E026, (2S,3R,4R,5S,6R)-2-(7-Chloro-6-(4-ethylbenzyl)benzo[d][1,3]dioxol-4-yl)-6-(hydroxymethyl)tetrahydro-2H-pyran-3,4,5-triol]
0.65 | 41.9 | OC[C@H]1O[C@@H](c2cc(Cc3ccc(C4CC4)cc3)c(Cl)c3c2OCCO3)[C@H](O)[C@@H](O)[C@@H]1O [Compound E027, (2S,3R,4R,5S,6R)-2-(8-Chloro-7-(4-cyclopropylbenzyl)-2,3-dihydrobenzo[b][1,4]dioxin-5-yl)-6-(hydroxymethyl)tetrahydro-2H-pyran-3,4,5-triol]
0.37 | 163 | C=Cc1ccc(Cc2cc([C@@H]3O[C@H](CO)[C@@H](O)[C@H](O)[C@H]3O)c3c(c2Cl)OCC3)cc1 [Compound E028, (2S,3R,4R,5S,6R)-2-(7-Chloro-6-(4-vinylbenzyl)-2,3-dihydrobenzofuran-4-yl)-6-(hydroxymethyl)tetrahydro-2H-pyran-3,4,5-triol]
0.47 | 21.1 | COc1ccc(Cc2cc([C@@H]3O[C@H](SC)[C@@H](O)[C@H](O)[C@H]3O)c3c(c2Cl)CCCO3)cc1 [Compound E029, (2S,3R,4R,5S,6R)-2-(5-Chloro-6-(4-methoxybenzyl)chroman-8-yl)-6-(methylthio)tetrahydro-2H-pyran-3,4,5-triol]
2.3 | 171 | COc1ccc(Cc2cc([C@@H]3O[C@H](CO)[C@@H](O)[C@H](O)[C@H]3O)c3c(c2Cl)CCS3)cc1 [Compound E030, (2S,3R,4R,5S,6R)-2-(4-Chloro-5-(4-methoxybenzyl)-2,3-dihydrobenzo[b]thiophen-7-yl)-6-(hydroxymethyl)tetrahydro-2H-pyran-3,4,5-triol]
2 | 196 | CCOc1ccc(Cc2cc([C@@H]3O[C@H](CO)[C@@H](O)[C@H](O)[C@H]3O)c3c(c2Cl)C(C)CO3)cc1 (stereo partly drawn) [Compound E031, (2S,3R,4R,5S,6R)-2-(4-Chloro-5-(4-ethoxybenzyl)-3-methyl-2,3-dihydrobenzofuran-7-yl)-6-(hydroxymethyl)-tetrahydro-2H-pyran-3,4,5-triol]
0.73 | 16.5 | COc1ccc(Cc2cc([C@@H]3O[C@H](CO)[C@@H](O)[C@H](O)[C@H]3O)c3c(c2C(F)F)CCC3)cc1 [Compound E032, (2S,3R,4R,5S,6R)-2-(7-(Difluoromethyl)-6-(4-methoxybenzyl)-2,3-dihydro-1H-inden-4-yl)-6-(hydroxymethyl)tetrahydro-2H-pyran-3,4,5-triol]
0.63 | 57.2 | CCc1ccc(Cc2cc([C@@H]3O[C@H](CO)[C@@H](O)[C@H](O)[C@H]3O)c3c(c2Cl)CCC3)cc1 [Compound E033, (2S,3R,4R,5S,6R)-2-(7-Chloro-6-(4-ethylbenzyl)-2,3-dihydro-1H-inden-4-yl)-6-(hydroxymethyl)tetrahydro-2H-pyran-3,4,5-triol]
0.9 | 27.6 | COc1ccc(Cc2cc([C@@H]3O[C@H](CO)[C@@H](O)[C@H](O)[C@H]3O)c3c(c2Cl)SCC3)cc1 [Compound E034, (2S,3R,4R,5S,6R)-2-(7-Chloro-6-(4-methoxybenzyl)-2,3-dihydrobenzo[b]thiophen-4-yl)-6-(hydroxymethyl)tetrahydro-2H-pyran-3,4,5-triol]
0.87 | 53 | CCc1ccc(Cc2cc([C@@H]3O[C@H](CO)[C@@H](O)[C@H](O)[C@H]3O)c3c(c2Cl)SCC3)cc1 [Compound E035, (2S,3R,4R,5S,6R)-2-(7-Chloro-6-(4-ethylbenzyl)-2,3-dihydrobenzo[b]thiophen-4-yl)-6-(hydroxymethyl)tetrahydro-2H-pyran-3,4,5-triol]
0.55 | 10.7 | COc1ccc(Cc2cc([C@@H]3O[C@H](CO)[C@@H](O)[C@H](O)[C@H]3O)c3c(c2Cl)SCCC3)cc1 [Compound E036, (2S,3R,4R,5S,6R)-2-(8-Chloro-7-(4-methoxybenzyl)thiochroman-5-yl)-6-(hydroxymethyl)tetrahydro-2H-pyran-3,4,5-triol]
0.86 | 10.5 | COc1ccc(Cc2cc([C@@H]3O[C@H](CO)[C@@H](O)[C@H](O)[C@H]3O)c3c(c2C)CCCC3)cc1 [Compound E037, (2R,3S,4R,5R,6S)-2-(Hydroxymethyl)-6-(3-(4-methoxybenzyl)-4-methyl-5,6,7,8-tetrahydronaphthalen-1-yl)tetrahydro-2H-pyran-3,4,5-triol]
0.6 | 9.6 | COc1ccc(Cc2cc([C@@H]3O[C@H](CO)[C@@H](O)[C@H](O)[C@H]3O)c3c(c2Cl)CCCC3)cc1 [Compound E038, (2S,3R,4R,5S,6R)-2-(4-Chloro-3-(4-methoxybenzyl)-5,6,7,8-tetrahydronaphthalen-1-yl)-6-(hydroxymethyl)tetrahydro-2H-pyran-3,4,5-triol]
0.62 | 33.2 | CCOc1ccc(Cc2cc([C@@H]3O[C@H](CO)[C@@H](O)[C@H](O)[C@H]3O)c3c(c2Cl)CCCC3)cc1 [Compound E039, (2S,3R,4R,5S,6R)-2-(4-Chloro-3-(4-ethoxybenzyl)-5,6,7,8-tetrahydronaphthalen-1-yl)-6-(hydroxymethyl)tetrahydro-2H-pyran-3,4,5-triol]
1 | 94.6 | Cc1ccc(Cc2cc([C@@H]3O[C@H](CO)[C@@H](O)[C@H](O)[C@H]3O)c3c(c2Cl)OCO3)cc1 [Compound E040, (2S,3R,4R,5S,6R)-2-(7-Chloro-6-(4-methylbenzyl)benzo[d][1,3]dioxol-4-yl)-6-(hydroxymethyl)tetrahydro-2H-pyran-3,4,5-triol]
8 | 91 | Cc1ccc(Cc2cc3c(c([C@@H]4O[C@H](CO)[C@@H](O)[C@H](O)[C@H]4O)c2)CCC3)cc1 [Compound E041, (2R,3S,4R,5R,6S)-2-(Hydroxymethyl)-6-(6-(4-methylbenzyl)-2,3-dihydro-1H-inden-4-yl)tetrahydro-2H-pyran-3,4,5-triol]
1 | 9.2 | Cc1ccc(Cc2cc([C@@H]3O[C@H](CO)[C@@H](O)[C@H](O)[C@H]3O)c3c(c2Cl)OCCO3)cc1 [Compound E042, (2S,3R,4R,5S,6R)-2-(8-chloro-7-(4-methylbenzyl)-2,3-dihydrobenzo[b][1,4]dioxin-5-yl)-6-(hydroxymethyl)tetrahydro-2H-pyran-3,4,5-triol]
0.49 | 32.6 | CCc1ccc(Cc2cc([C@@H]3O[C@H](CO)[C@@H](O)[C@H](O)[C@H]3O)c3c(c2Cl)CCCC3)cc1 [Compound E043, (2S,3R,4R,5S,6R)-2-(4-Chloro-3-(4-ethylbenzyl)-5,6,7,8-tetrahydronaphthalen-1-yl)-6-(hydroxymethyl)tetrahydro-2H-pyran-3,4,5-triol]
